Measured values from patent US4922021A, “New alkylene diamine derivatives” (BASF Aktiensellschaft, priority 1981, dated 1990).

How the values were obtained:
[1] = test system: aconitin-induced arrhythmia; assay: animal or person; conditions: Mus musculus, ip, read-out: Delay in time of appearance of arrhythmia
[2] = test system: fibrillation threshold of the heart; assay: Determination of the fibrillation threshold in anaesthetized cats; type: in vivo
Source text: The chests of the cats were opened under chloralose-urethane anaesthesia a bipolar stimulating electrode was fixed onto the heart, and the heart was stimulated electrically with a frequency of 20 Hz, under continuously increasing current strength, until a fibrillo-flattern could be observed. This current strength was regarded as the fibrillation threshold of the animal.

right ventricle = assay: Electrophysiological tests on isolated rabbit heart, right ventricle; parameters: species or system rabbits; conditions: 2 mg/l, average
Method: (§1) Heart of rabbits of both sexes, weighing 1-2 kg, were removed, the right and left auricles and a segment of the right ventricle were prepared and placed into a vessel filled with nutrient solution. Bipolar platinum electrodes (a stimulating electrode and a lead electrode) were placed onto the organ strips, and the electric stimulus threshold and the speed of impulse condution were measured. The effective refractory period determined on the basis of the maximum driving frequency.

[3] = test system: barium chloride-induced arrhythmia; assay: Barium chloride-induced arrhythmia in awake rabbits; type: in vivo; conditions: 2 mg/kg
Method: The compounds to be tested were administered intravenously to the animals 3 minutes after treating them with barium chloride, and the effect was recorded. It was regarded as a positive protecting effect when the compound suspended the arrhythmic condition for at least 3 minutes.

[4] = test system: aconitin-induced arrhythmia; conditions: mouse, in vivo, po, 100 mg/kg
[5] = test system: myocardial contractile force, arterial blood pressure and pulse rate; assay: Inotropic effects (myocardial contractile force) in anaesthetized cats; type: in vivo; conditions: i.v.; for Contractility, change: basal 100
Method: Cats were anaesthetized with chloralose-urethane, a cannula was lead into the femoral artery, and the cannula was connected, through a Statham P 23 Db pressure sensor, to a Hellige recorder, where the arterial blood pressure and the pulse rate were recorded. The animals were respirated artifically, their chests were opened, and a strain gage was sutured on the left heart. The strain gage was connected to the Hellige recorder, and the variations in cardiac contractile force were recorded. The test compounds were administered to the animals intravenously through a cannula.

[6] = test system: ouabain-induced arrhythmia; assay: Ouabain-induced arrhythmia in anaesthetized dogs; type: in vivo
Method: Anaesthetized dogs of both sexes were treated intravenously with an infusion of 60 /ug/kg of ouabain to provoke arrhythmia, and the arrhythmic state was maintained with an ouabain dose 60 times less than the initial. In this way a ventricular tachycardia or tachyarrhythmia lasting for more than 180 minutes was provoked. The compounds were tested during this period. The period of recovered normal sinus rhythm was recorded, and when a compound exerted protective effect for more than 30 minutes, this fact was regarded as complete protection. The tests were performed essentially according to the method of Piascik et al. [Can.
Examination of the anti-arrhythmic effect in dogs anaesthetized with a 30
of pentobarbital sodium and treated with ouabain

[7] = test system: systemic and pulmonary circulation; assay: Effects on the systemic and pulmonary circulation of awake cats; type: in vivo; conditions: i.v., 1.0 mg/kg
Source text: Cats were anaesthetized with pentobarbital, and cannulas were placed into the carotis artery and, through the jugular vein, into the pulmonary artery. An additional cannula was placed into the jugular vein for the administration of the test compound. The cannulas were filled up with heparin in order to avoid blood clotting. Thereafter the wounds were sutured, and the cannulas were led below a bandage placed around the neck of the animal. 3 days after this operation the systemic arterial blood pressure, the pulmonary arterial pressure and the pulse rate of the awake animals were measured with a Hellige recorder, connected to the cannulas through a Statham P 23 Db type pressure transducer.

left auricle = assay: Electrophysiological tests on isolated rabbit heart, left auricle; parameters: species or system rabbits; conditions: 2 mg/l, average
Method: as §1

[8] = J. Med. Chem. 6, 705 (1963); cited from earlier work

SMILES: Cc1cccc(C)c1N(C)CC(C)N(C)C (centres unmarked) [1-[N-methyl-N-(2,6-dimethylphenyl)-amino]-2-dimethylamino-propane]
- change in vivo at 50 mg/kg [1]: 78%

SMILES: Cc1cccc(C)c1OCC(C)N.Cl (centres unmarked) [1-(2,6-Dimethylphenoxy)-2-aminopropane hydrochloride, reference compound]
- Effect on the fibrillation threshold ([2]; in vivo, iv, 0.5 mg/kg): +9.4%
- Effect on the fibrillation threshold ([2]; in vivo, iv, 1 mg/kg): +12.9%
- Effect on the fibrillation threshold ([2]; in vivo, iv, 2 mg/kg): +24.8%
- Effect on the fibrillation threshold ([2]; in vivo, iv, 4 mg/kg): +34.0%
- Change of the conduction time (right ventricle): +11%
- Change of the effective refractory period (right ventricle): +28%
- Change of the electric stimulus threshold (right ventricle): +14%
- Protecting effect, number of animals ([3]; rabbit, in vivo, iv): 4/10
- Delay in the appearance time of arrhythmia [4]: +82.0%
- change in vivo at 5 mg/kg [1]: 3.5%
- change in vivo at 10 mg/kg [1]: 7.7%
- change in vivo at 25 mg/kg [1]: 33.3%
- change in vivo at 50 mg/kg [1]: 83.1%
- change in vivo at 75 mg/kg [1]: 162%
- Arterial blood pressure, change ([5]; 0.5 mg/kg): -45 mmHg
- Pulse/minute, change ([5]; 0.5 mg/kg): -40 min⁻¹
- Contractility, change ([5]; 0.5 mg/kg): -29%
- Arterial blood pressure, change ([5]; 1.0 mg/kg): -40 mmHg
- Pulse/minute, change ([5]; 1.0 mg/kg): -50 min⁻¹
- Contractility, change ([5]; 1.0 mg/kg): -32%
- Arterial blood pressure, change ([5]; 2.0 mg/kg): -60 mmHg
- Pulse/minute, change ([5]; 2.0 mg/kg): -50 min⁻¹
- Contractility, change ([5]; 2.0 mg/kg): -38%
- Arterial blood pressure, change ([5]; 5.0 mg/kg): -65 mmHg
- Pulse/minute, change ([5]; 5.0 mg/kg): -50 min⁻¹
- Contractility, change ([5]; 5.0 mg/kg): -57%
- Average time of partial suspension ([6]; dog, in vivo, iv, 0.5 mg/kg): 0.5 min
- Complete suspension, number of cases ([6]; dog, in vivo, iv, 0.5 mg/kg): 1/15
- Average time of partial suspension ([6]; dog, in vivo, iv, 1 mg/kg): 2.6 min
- Complete suspension, number of cases ([6]; dog, in vivo, iv, 1 mg/kg): 1/15
- Average time of partial suspension ([6]; dog, in vivo, iv, 2 mg/kg): 2.9 min
- Complete suspension, number of cases ([6]; dog, in vivo, iv, 2 mg/kg): 3/14
- Average time of partial suspension ([6]; dog, in vivo, iv, 4 mg/kg): 1.4 min
- Complete suspension, number of cases ([6]; dog, in vivo, iv, 4 mg/kg): 4/9
- Average time of partial suspension ([6]; dog, in vivo, iv, 8 mg/kg): 10.3 min
- Complete suspension, number of cases ([6]; dog, in vivo, iv, 8 mg/kg): 2/5
- Pulmonary arterial mean pressure, change ([7]; basal 13): +6 mmHg
- Arterial blood pressure, change ([7]; basal 102): -39 mmHg
- Pulse/minute, change ([7]; basal 190-200): -66 min⁻¹
- Change of the conduction time (left auricle): +24%
- Change of the effective refractory period (left auricle): +32%
- Change of the electric stimulus threshold (left auricle): +36%

SMILES: Cc1cccc(C)c1NCCC(C)N (centres unmarked) [1-(2,6-dimethylphenyl-amino)-3-amino-butane]
- Effect on the fibrillation threshold ([2]; i.v., 0.5 mg/kg): +2.3%
- Effect on the fibrillation threshold ([2]; i.v., 1.0 mg/kg): +3.0%
- Effect on the fibrillation threshold ([2]; i.v., 2.0 mg/kg): +16.5%
- Effect on the fibrillation threshold ([2]; i.v., 4.0 mg/kg): +52.9%
- Protecting effect, number of animals ([3]; i.v., arrhythmia suspended for at least 3 minutes): 5/10
- Delay in the appearance time of arrhythmia [4]: +84.0%
- change in vivo at 10 mg/kg [1]: 0%
- change in vivo at 25 mg/kg [1]: 48%
- change in vivo at 50 mg/kg [1]: 87%
- change in vivo at 75 mg/kg [1]: 135%
- Average time of partial suspension ([6]; i.v., 0.5 mg/kg): 0.3 min
- Complete suspension, number of cases ([6]; i.v., 0.5 mg/kg, protection > 30 min = complete): 1/16
- Average time of partial suspension ([6]; i.v., 1.0 mg/kg): 0.8 min
- Complete suspension, number of cases ([6]; i.v., 1.0 mg/kg, protection > 30 min = complete): 1/15
- Average time of partial suspension ([6]; i.v., 2.0 mg/kg): 3.7 min
- Complete suspension, number of cases ([6]; i.v., 2.0 mg/kg, protection > 30 min = complete): 2/15
- Average time of partial suspension ([6]; i.v., 4.0 mg/kg): 5.4 min
- Complete suspension, number of cases ([6]; i.v., 4.0 mg/kg, protection > 30 min = complete): 7/14
- Average time of partial suspension ([6]; i.v., 8.0 mg/kg): 6.5 min
- Complete suspension, number of cases ([6]; i.v., 8.0 mg/kg, protection > 30 min = complete): 3/5

SMILES: CCN(CCN)c1c(C)cccc1C [N-ethyl-N-(2,6-dimethylphenyl)-ethylenediamine]
- hypotensive effects [8]: hypotensive effects

SMILES: Cc1cccc(C)c1N(C)CCN [N-methyl-N-(2,6-dimethylphenyl)-ethylenediamine]
- hypotensive effects [8]: hypotensive effects
